{
  "source": "paper PMC9945734",
  "about": "(BMC Medicine, 2023)",
  "test_system": "PC-3-KQ and PC-3-KR cells",
  "experiment": "RNA-sequencing and differential gene expression",
  "format": "cell-based, human",
  "details": "RNA-Seq, PC-3-KQ cells",
  "data": [
    {"smiles": "CC(=O)Oc1ccccc1C(=O)Nc1ncc([N+](=O)[O-])s1", "note": "[Nitazoxanide]", "values": [
      {"measurement": "BDKRB2 Change (KQ-Control vs KQ-NTZ)", "result": "DOWN"},
      {"measurement": "BDKRB2 logFC (KQ-Control vs KQ-NTZ)", "result": -1.3479},
      {"measurement": "BRINP2 Change (KQ-Control vs KQ-NTZ)", "result": "DOWN"},
      {"measurement": "BRINP2 logFC (KQ-Control vs KQ-NTZ)", "result": -0.6846},
      {"measurement": "BTBD11 Change (KQ-Control vs KQ-NTZ)", "result": "DOWN"},
      {"measurement": "BTBD11 logFC (KQ-Control vs KQ-NTZ)", "result": -1.0629},
      {"measurement": "C2orf78 Change (KQ-Control vs KQ-NTZ)", "result": "DOWN"},
      {"measurement": "C2orf78 logFC (KQ-Control vs KQ-NTZ)", "result": -0.8606},
      {"measurement": "CACNG8 Change (KQ-Control vs KQ-NTZ)", "result": "DOWN"},
      {"measurement": "CACNG8 logFC (KQ-Control vs KQ-NTZ)", "result": -1.0729},
      {"measurement": "CAPSL Change (KQ-Control vs KQ-NTZ)", "result": "DOWN"},
      {"measurement": "CAPSL logFC (KQ-Control vs KQ-NTZ)", "result": -0.8068},
      {"measurement": "CD14 Change (KQ-Control vs KQ-NTZ)", "result": "DOWN"},
      {"measurement": "CD14 logFC (KQ-Control vs KQ-NTZ)", "result": -2.3874},
      {"measurement": "CEP19 Change (KQ-Control vs KQ-NTZ)", "result": "DOWN"},
      {"measurement": "CEP19 logFC (KQ-Control vs KQ-NTZ)", "result": -0.5995},
      {"measurement": "CNTNAP3B Change (KQ-Control vs KQ-NTZ)", "result": "DOWN"},
      {"measurement": "CNTNAP3B logFC (KQ-Control vs KQ-NTZ)", "result": -1.4339},
      {"measurement": "COL4A6 Change (KQ-Control vs KQ-NTZ)", "result": "DOWN"},
      {"measurement": "COL4A6 logFC (KQ-Control vs KQ-NTZ)", "result": -0.6049},
      {"measurement": "CSF3 Change (KQ-Control vs KQ-NTZ)", "result": "DOWN"},
      {"measurement": "CSF3 logFC (KQ-Control vs KQ-NTZ)", "result": -0.9191},
      {"measurement": "CXCL5 Change (KQ-Control vs KQ-NTZ)", "result": "DOWN"},
      {"measurement": "CXCL5 logFC (KQ-Control vs KQ-NTZ)", "result": -1.0464},
      {"measurement": "DEPTOR Change (KQ-Control vs KQ-NTZ)", "result": "DOWN"},
      {"measurement": "DEPTOR logFC (KQ-Control vs KQ-NTZ)", "result": -0.7982},
      {"measurement": "DMC1 Change (KQ-Control vs KQ-NTZ)", "result": "DOWN"},
      {"measurement": "DMC1 logFC (KQ-Control vs KQ-NTZ)", "result": -0.9749},
      {"measurement": "DRP2 Change (KQ-Control vs KQ-NTZ)", "result": "DOWN"},
      {"measurement": "DRP2 logFC (KQ-Control vs KQ-NTZ)", "result": -1.0796},
      {"measurement": "ECM2 Change (KQ-Control vs KQ-NTZ)", "result": "DOWN"},
      {"measurement": "ECM2 logFC (KQ-Control vs KQ-NTZ)", "result": -0.755},
      {"measurement": "EFCAB6 Change (KQ-Control vs KQ-NTZ)", "result": "DOWN"},
      {"measurement": "EFCAB6 logFC (KQ-Control vs KQ-NTZ)", "result": -0.8325},
      {"measurement": "FAM43A Change (KQ-Control vs KQ-NTZ)", "result": "DOWN"},
      {"measurement": "FAM43A logFC (KQ-Control vs KQ-NTZ)", "result": -1.1246},
      {"measurement": "FAM83D Change (KQ-Control vs KQ-NTZ)", "result": "DOWN"},
      {"measurement": "FAM83D logFC (KQ-Control vs KQ-NTZ)", "result": -0.5981},
      {"measurement": "FAM186B Change (KQ-Control vs KQ-NTZ)", "result": "DOWN"},
      {"measurement": "FAM186B logFC (KQ-Control vs KQ-NTZ)", "result": -0.6856},
      {"measurement": "FANCI Change (KQ-Control vs KQ-NTZ)", "result": "DOWN"},
      {"measurement": "FANCI logFC (KQ-Control vs KQ-NTZ)", "result": -0.7453},
      {"measurement": "FANCL Change (KQ-Control vs KQ-NTZ)", "result": "DOWN"},
      {"measurement": "FANCL logFC (KQ-Control vs KQ-NTZ)", "result": -0.6097},
      {"measurement": "FCGBP Change (KQ-Control vs KQ-NTZ)", "result": "DOWN"},
      {"measurement": "FCGBP logFC (KQ-Control vs KQ-NTZ)", "result": -2.5743},
      {"measurement": "FLI1 Change (KQ-Control vs KQ-NTZ)", "result": "DOWN"},
      {"measurement": "FLI1 logFC (KQ-Control vs KQ-NTZ)", "result": -0.8219},
      {"measurement": "FLRT1 Change (KQ-Control vs KQ-NTZ)", "result": "DOWN"},
      {"measurement": "FLRT1 logFC (KQ-Control vs KQ-NTZ)", "result": -0.8174},
      {"measurement": "FLT1 Change (KQ-Control vs KQ-NTZ)", "result": "DOWN"},
      {"measurement": "FLT1 logFC (KQ-Control vs KQ-NTZ)", "result": -0.8},
      {"measurement": "FOXI1 Change (KQ-Control vs KQ-NTZ)", "result": "DOWN"},
      {"measurement": "FOXI1 logFC (KQ-Control vs KQ-NTZ)", "result": -1.9605},
      {"measurement": "FOXP3 Change (KQ-Control vs KQ-NTZ)", "result": "DOWN"},
      {"measurement": "FOXP3 logFC (KQ-Control vs KQ-NTZ)", "result": -1.1132},
      {"measurement": "FSD2 Change (KQ-Control vs KQ-NTZ)", "result": "DOWN"},
      {"measurement": "FSD2 logFC (KQ-Control vs KQ-NTZ)", "result": -1.2199},
      {"measurement": "FZD4 Change (KQ-Control vs KQ-NTZ)", "result": "DOWN"},
      {"measurement": "FZD4 logFC (KQ-Control vs KQ-NTZ)", "result": -1.1759},
      {"measurement": "GBX2 Change (KQ-Control vs KQ-NTZ)", "result": "DOWN"},
      {"measurement": "GBX2 logFC (KQ-Control vs KQ-NTZ)", "result": -0.9793},
      {"measurement": "GPR19 Change (KQ-Control vs KQ-NTZ)", "result": "DOWN"},
      {"measurement": "GPR19 logFC (KQ-Control vs KQ-NTZ)", "result": -0.6847},
      {"measurement": "GRAMD2A Change (KQ-Control vs KQ-NTZ)", "result": "DOWN"},
      {"measurement": "GRAMD2A logFC (KQ-Control vs KQ-NTZ)", "result": -1.0971},
      {"measurement": "H3C1 Change (KQ-Control vs KQ-NTZ)", "result": "DOWN"},
      {"measurement": "H3C1 logFC (KQ-Control vs KQ-NTZ)", "result": -0.9324},
      {"measurement": "HAS3 Change (KQ-Control vs KQ-NTZ)", "result": "DOWN"},
      {"measurement": "HAS3 logFC (KQ-Control vs KQ-NTZ)", "result": -1.3005},
      {"measurement": "HPSE2 Change (KQ-Control vs KQ-NTZ)", "result": "DOWN"},
      {"measurement": "HPSE2 logFC (KQ-Control vs KQ-NTZ)", "result": -0.9315},
      {"measurement": "HSD3B1 Change (KQ-Control vs KQ-NTZ)", "result": "DOWN"},
      {"measurement": "HSD3B1 logFC (KQ-Control vs KQ-NTZ)", "result": -0.7148},
      {"measurement": "IGF2BP1 Change (KQ-Control vs KQ-NTZ)", "result": "DOWN"},
      {"measurement": "IGF2BP1 logFC (KQ-Control vs KQ-NTZ)", "result": -0.8373},
      {"measurement": "IGFBP4 Change (KQ-Control vs KQ-NTZ)", "result": "DOWN"},
      {"measurement": "IGFBP4 logFC (KQ-Control vs KQ-NTZ)", "result": -1.0441},
      {"measurement": "IGSF23 Change (KQ-Control vs KQ-NTZ)", "result": "DOWN"},
      {"measurement": "IGSF23 logFC (KQ-Control vs KQ-NTZ)", "result": -0.7201}
    ]}
  ]
}
